Data: PMC11581978, “Paenilamicins are context-specific translocation inhibitors of protein synthesis” (Nature Chemical Biology, 2024)

How the values were obtained:
[1] = system: Escherichia coli in vitro translation; settings: well-known translation inhibitors; read-out: IC50; cited from earlier work
Excerpt: The accordance of structural features of paenilamicins with the translation inhibitor edeine (Extended Data Fig. 1c) led to the hypothesis that paenilamicins may also exert their antimicrobial activity by binding to the ribosome and inhibiting protein synthesis. […] The best understood context-specific translation inhibitors are those that target the large subunit, where their inhibitory action is influenced by the sequence of the nascent polypeptide chain being synthesized, for example, macrolides and ketolides[30]–[32] ...

[2] = system: ribosomes translating ErmBL mRNA; assay: Toeprinting on ErmBL mRNA templates (Figs. 4a and 5c); format: biochemical, E. coli; settings: for ribosome stalling on wildtype ErmBL mRNA: mupirocin present, in duplicate
Procedure: Toeprinting reactions for Figs. 4a and 5c were performed as described previously. Briefly, reactions were performed with 5 μl of PURExpress in vitro protein synthesis system. The reactions contained 0.1 pmol of the respective DNA template (Supplementary Table 2) and were supplemented with retapamulin, erythromycin, mupirocin or PamB2 as specified. The transcription–translation reactions were incubated 20 min at 37 °C. Subsequently, reverse transcription was performed for 10 min at 37 °C using AMV RT and the radiolabeled NV*1-primer. Reactions were stopped by the addition of 1 µl of 10 M NaOH and then neutralized with 0.8 µl of concentrated HCl. Subsequently, 200 µl of the stop buffer (0.3 M sodium acetate (pH 5.5), 5 mM EDTA and 0.5% SDS) was added and phenol extraction was performed. The obtained complementary DNA was precipitated in ethanol for subsequent gel electrophoresis.

[3] = system: EF-G-dependent translocation on the ribosome; assay: Translocation assay (toeprinting, MFKAFK template); format: biochemical; settings: EF-G present; tRNAfMet in P-site, N-AcPhe-tRNAPhe in A-site; in duplicate
Procedure: Translocation assays were performed as previously described[22] using the MFKAFK template[45] (Supplementary Table 2). Reactions were prepared by incubating tight-coupled ribosomes (0.7 µM) with mRNA (0.5 µM) and tRNAi^Met (1 µM) for 20 min at 37 °C in the Pure System Buffer (5 mM potassium phosphate (pH 7.3), 9 mM Mg(OAc)2, 95 mM potassium glutamate, 5 mM NH4Cl, 0.5 mM CaCl2, 1 mM spermidine, 8 mM putrescine and 1 mM dithiothreitol) and for additional 10 min at 37 °C with 2 μM of N-acetyl-Phe-tRNA^Phe. At the time of N-acetyl-Phe-tRNA^Phe addition, the reactions were supplemented with PamB2 or negamycin as specified. The translocation reaction was initiated by addition of 1 µl of EF-G–GTP mixture (1.2 µM and 3.2 mM). After 5 min of incubation at 30 °C, 2 µl of reverse transcriptase and/or dNTPs mixture was added. The reactions were stopped after another 5 min at 30 °C by addition of 200 µl of the stop buffer and subsequent phenol extraction. The obtained complementary DNA was precipitated in ethanol for subsequent gel electrophoresis.

[4] = system: EF-G-dependent translocation on the ribosome; parameters: method as in PMID 25306922; settings: cited from earlier work
[5] = system: E. coli ribosomes translating MLIFstop-mRNA; assay: Toeprinting assay on MLIFstop-mRNA; format: biochemical; settings: 100 µM, positive control, toeprinting in duplicate
Excerpt: To investigate how paenilamicins inhibit translation, we generated PamB2-stalled ribosome complexes (PamB2-SRC) for single-particle cryo-EM analysis. Rather than forming complexes on vacant ribosomes, or with predefined functional states, we instead aimed to use more physiological complexes where translating ribosomes become stalled by PamB2. To achieve this, we performed in vitro translation reactions with E. coli ribosomes using the Met-Leu-Ile-Phe-stop-mRNA (MLIFstop-mRNA), a model template that we had previously used to successfully determine structures of drosocin-stalled ribosomal complexes. Toeprinting was used to monitor the position of ribosomes on the MLIFstop-mRNA in the presence of increasing concentrations of synthetic PamB2 (Extended Data Fig. 2). […] (Extended Data Fig. 2). […] (Extended Data Fig. 2).
Toeprinting reactions for Fig. 4b and Extended Data Fig. 2 were performed as described previously. Briefly, reactions were performed with 6 μl of PURExpress in vitro protein synthesis system (New England Biolabs). The reactions were carried out with different primers and templates (Supplementary Tables 2 and 3). The reactions contained 340 ng of the respective mRNA template and were supplemented with the different compounds as specified. The translation reactions were incubated for 30 min at 37 °C. […]

O=C(N[C@H](CO)[C@H](O)c1ccc([N+](=O)[O-])cc1)C(Cl)Cl [chloramphenicol, reference compound]
IC50 [1]: 1000 nM

CC[C@H]1OC(=O)[C@H](C)[C@@H](O[C@H]2C[C@@](C)(OC)[C@@H](O)[C@H](C)O2)[C@H](C)[C@@H](O[C@@H]2O[C@H](C)C[C@H](N(C)C)[C@H]2O)[C@](C)(O)C[C@@H](C)C(=O)[C@H](C)[C@@H](O)[C@]1(C)O [erythromycin, reference compound]
ribosome stalling on wildtype ErmBL mRNA ([2]; 50 µM): accumulation of ribosomes stalled with the tenth CAU codon (encoding Asp) in the P-site | IC50 [1]: 750 nM

C/C(=C\C(=O)OCCCCCCCCC(=O)O)C[C@@H]1OC[C@H](C[C@@H]2O[C@H]2[C@@H](C)[C@H](C)O)[C@@H](O)[C@H]1O [mupirocin, reference compound]
ribosome trapping at twelfth codon (AUC, Ile) of ErmBL mRNA ([2]; Ile-tRNA synthetase inhibitor added to all reactions, concentration not given): become trapped

CN(CC(=O)O)NC(=O)C[C@H](N)C[C@@H](O)CN [negamycin, reference compound]
EF-G dependent translocation (toeprint shift) [3]: little to no shift in the toeprint band | interference with translocation [4]: interfere with translocation

C=C[C@]1(C)C[C@@H](OC(=O)CS[C@@H]2C[C@H]3CC[C@@H](C2)N3C)[C@]2(C)[C@H](C)CC[C@]3(CCC(=O)[C@H]32)[C@@H](C)[C@@H]1O [retapamulin, reference compound]
ribosome stalling on wildtype ErmBL mRNA ([2]; 50 or 100 µM): traps ribosomes on the AUG start codon

CN(C)[C@@H]1C(O)=C(C(N)=O)C(=O)[C@@]2(O)C(O)=C3C(=O)c4c(O)cccc4[C@@](C)(O)[C@H]3C[C@@H]12 [tetracycline, reference compound]
IC50 [1]: 10000 nM

thiostrepton [reference compound]
ribosome stalling on MLIFstop-mRNA [5]: a single strong band is observed that corresponds to ribosomes trapped on the AUG start codon
